From ChEMBL document CHEMBL1759967, “Structure-based design and biological profile of (E)-N-(4-Nitrobenzylidene)-2-naphthohydrazide, a novel small molecule inhibitor of IκB kinase-β” (Eur J Med Chem, 2011)
Active and inactive are the calls of the source. The rule behind the calls is not given here.

Key:
[1] = molecular target: T1, Inhibitor of nuclear factor kappa-B kinase subunit beta (Homo sapiens) (UniProt O14920); details: Sf21, 30 uM
T1 sequence (whole entry): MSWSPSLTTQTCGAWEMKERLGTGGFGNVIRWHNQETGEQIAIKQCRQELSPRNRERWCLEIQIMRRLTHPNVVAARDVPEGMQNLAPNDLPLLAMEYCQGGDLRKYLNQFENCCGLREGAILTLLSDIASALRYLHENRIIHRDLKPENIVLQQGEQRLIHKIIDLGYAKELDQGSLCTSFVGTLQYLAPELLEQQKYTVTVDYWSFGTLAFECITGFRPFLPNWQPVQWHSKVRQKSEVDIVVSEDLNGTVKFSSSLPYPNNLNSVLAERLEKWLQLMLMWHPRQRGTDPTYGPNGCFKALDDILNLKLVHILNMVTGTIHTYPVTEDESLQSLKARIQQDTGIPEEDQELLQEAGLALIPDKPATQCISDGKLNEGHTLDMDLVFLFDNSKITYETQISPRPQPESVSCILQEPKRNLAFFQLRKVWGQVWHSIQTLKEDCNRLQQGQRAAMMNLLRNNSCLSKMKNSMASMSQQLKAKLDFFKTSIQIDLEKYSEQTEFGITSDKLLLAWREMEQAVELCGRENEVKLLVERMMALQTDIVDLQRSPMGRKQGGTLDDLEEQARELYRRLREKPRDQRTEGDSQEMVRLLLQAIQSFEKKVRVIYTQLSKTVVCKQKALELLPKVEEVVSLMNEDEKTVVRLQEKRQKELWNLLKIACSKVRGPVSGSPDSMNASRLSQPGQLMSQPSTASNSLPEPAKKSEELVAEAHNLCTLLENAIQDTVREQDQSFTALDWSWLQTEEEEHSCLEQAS
Description: Inhibition of human recombinant IKK-beta expressed in insect Sf21 cells using phospho-Ulight-IkappaB-alpha as substrate at 30 uM

[2] = molecular target: T2, Inhibitor of nuclear factor kappa-B kinase subunit alpha (Homo sapiens) (UniProt O15111); details: Sf21, 30 uM
T2 sequence (whole entry): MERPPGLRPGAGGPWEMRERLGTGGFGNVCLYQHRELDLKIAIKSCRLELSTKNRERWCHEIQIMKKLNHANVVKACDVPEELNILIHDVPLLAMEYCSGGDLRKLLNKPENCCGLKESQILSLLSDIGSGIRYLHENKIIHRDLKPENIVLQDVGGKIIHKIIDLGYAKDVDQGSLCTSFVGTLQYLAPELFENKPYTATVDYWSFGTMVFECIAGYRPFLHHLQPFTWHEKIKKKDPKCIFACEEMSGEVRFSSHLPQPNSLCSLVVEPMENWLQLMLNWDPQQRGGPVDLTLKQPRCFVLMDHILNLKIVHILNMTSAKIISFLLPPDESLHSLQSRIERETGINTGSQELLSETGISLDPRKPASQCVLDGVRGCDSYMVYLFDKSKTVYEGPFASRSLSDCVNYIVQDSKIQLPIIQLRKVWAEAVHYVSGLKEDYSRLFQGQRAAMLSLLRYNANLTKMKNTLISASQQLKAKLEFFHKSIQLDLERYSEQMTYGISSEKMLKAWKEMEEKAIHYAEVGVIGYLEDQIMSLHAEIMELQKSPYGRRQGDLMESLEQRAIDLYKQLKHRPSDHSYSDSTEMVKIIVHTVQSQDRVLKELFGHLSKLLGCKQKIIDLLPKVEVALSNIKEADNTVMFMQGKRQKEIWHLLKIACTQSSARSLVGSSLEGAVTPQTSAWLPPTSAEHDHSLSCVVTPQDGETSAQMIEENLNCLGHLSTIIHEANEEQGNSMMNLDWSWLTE
Description: Inhibition of human recombinant IKK-alpha expressed in insect Sf21 cells using phospho-Ulight-IkappaB-alpha as substrate at 30 uM

[3] = molecular target: Serine/threonine-protein kinase Chk2 (Homo sapiens) (UniProt O96017); assay: Inhibition of human CHK2 kinase expressed in insect Sf21 cells using phospho-CREBtide as substrate at 30 uM
Serine/threonine-protein kinase Chk2 (Homo sapiens), sequence (O96017 whole entry): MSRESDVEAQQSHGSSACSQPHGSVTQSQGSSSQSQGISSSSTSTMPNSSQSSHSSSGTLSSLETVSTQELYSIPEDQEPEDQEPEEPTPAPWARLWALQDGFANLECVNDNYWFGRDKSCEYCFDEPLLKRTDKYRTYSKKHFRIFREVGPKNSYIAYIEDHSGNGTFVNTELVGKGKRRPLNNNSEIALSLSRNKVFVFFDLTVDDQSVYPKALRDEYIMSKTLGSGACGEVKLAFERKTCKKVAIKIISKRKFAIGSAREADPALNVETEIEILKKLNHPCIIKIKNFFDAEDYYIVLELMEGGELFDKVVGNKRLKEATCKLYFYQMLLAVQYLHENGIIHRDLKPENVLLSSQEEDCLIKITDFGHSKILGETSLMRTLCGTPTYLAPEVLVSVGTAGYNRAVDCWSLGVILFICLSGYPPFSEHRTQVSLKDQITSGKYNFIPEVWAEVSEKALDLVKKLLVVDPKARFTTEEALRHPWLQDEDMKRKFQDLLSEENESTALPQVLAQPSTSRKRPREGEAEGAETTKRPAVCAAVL

[4] = molecular target: T3, Inhibitor of nuclear factor kappa-B kinase subunit beta (Homo sapiens, UniProt O14920); assay: Inhibition of human recombinant IKK-beta expressed in insect Sf21 cells using phospho-Ulight-IkappaB-alpha as substrate
T3 sequence (O14920 whole entry): T1 sequence (whole entry)

Mus musculus [5] = organism: Mus musculus; details: Swiss, Ear, at 10 µmol/kg
Mus musculus [6] = assay: Antiinflammatory activity in Swiss mouse assessed as inhibition of arachidonic acid-induced ear edema at 10 to 100 umol/kg, ip administered 60 mins before arachidonic acid challenge measured after 1 to 6 hrs by electronic digital caliper; type: functional, organism-based

SMILES | inhibition [1] [%] | inhibition [2] [%] | inhibition [3] [%] | IC50 [4] [µM] | inhibition (Mus musculus [5]) | inhibition (Mus musculus [6])
COC(=O)c1ccc(/C=N/NC(=O)c2ccc3ccccc3c2)cc1 | 0 | 0 | 0 | – | – | –
O=C(N/N=C/c1ccc([N+](=O)[O-])cc1)c1ccc2ccccc2c1 | 1.2 | 0 | 0 | 20 | Active | Dose-dependent effect
O=C(O)c1ccc(/C=N/NC(=O)c2ccc3ccccc3c2)cc1 | 0 | 0 | 0 | – | – | –
NC(=O)c1sc(-c2ccsc2)cc1N | – | – | – | – | Active | –
